Numbers after ± are expanded uncertainties.
Conditions: Liquid, Ebulliometric method (Recirculating still)

Row | vapor or sublimation pressure (353.15 K) [kPa] | vapor or sublimation pressure (333.15 K) [kPa] | vapor or sublimation pressure (373.15 K) [kPa] | SMILES
1 | 86.7 ± 3.1 | – | – | CCC(C)(C)OC [2-methoxy-2-methylbutane]
2 | – | 120.4 ± 3.2 | – | COC(C)(C)C [2-methoxy-2-methylpropane]
3 | 1.3 | 0.5 | 3.6 ± 3 | CN1CCCC1=O [N-methylpyrrolidone]
4 | 74.1 ± 3.1 | – | 135.5 ± 3.1 | CCCOCCC [dipropyl ether]

Reference: the NIST ThermoML archive (doi:10.1016/j.fluid.2005.06.017)
